# Laboratory results published in ChEMBL document CHEMBL1201862, “PubChem BioAssay data set” (2004).
# The source made the active and inactive calls.
# What was measured:
# Streptococcus = assay: GAS UMAA2166 growth inhibition – luminescence, BacTiterGlo, counter-screen for streptokinase expression inhibitor project, dose response (AID 1915); assay type: functional, organism-based;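 also: potency for reduction of bacterial viability or growth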
# Genome polyprotein = Genome polyprotein (dengue virus type 2, UniProt P29990); assay: flavivirus cap methylation enzyme inhibition – biochemical, confirmation dose response, primary screen (AID 588689); assay type: functional
# HEK293 [1] = assay: NOD2 signaling inhibitors in MDP-stimulated cells, cell-based, uHTS, luminescence (AID 2001); assay type: functional; details: Homo sapiens
# [2] = CCR5-tropic HIV-1 fusion blockers – cell-based, CCR5-tropic Env, dose response (AID 2279); assay type: functional
# Phospholipase A2 = Phospholipase A2 (Homo sapiens, UniProt P04054); assay type: functional;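 also: confirmatory dose-response counterscreen on phospholipase A2, testing hits that came from an ultra-high-throughput screen for ATG4B inhibitors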
# Chain of Phospholipase A2 (P04054 whole entry): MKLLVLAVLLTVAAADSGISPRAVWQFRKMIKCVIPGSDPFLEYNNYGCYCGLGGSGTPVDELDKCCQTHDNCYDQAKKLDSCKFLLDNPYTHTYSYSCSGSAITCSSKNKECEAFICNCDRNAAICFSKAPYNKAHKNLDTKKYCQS
# HEK293 [3] = assay: inhibition of NOD1-driven NF-kB reporter – cell-based, luminescence, uHTS, primary screen (AID 1578); assay type: functional; details: Homo sapiens
# Cysteine protease ATG4B = Cysteine protease ATG4B (Homo sapiens, UniProt Q9Y4P1); assay type: functional;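 also: Fluorescence-based dose-response confirmation assay measuring inhibition of ATG4B activity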
# HEK293 [4] = assay: cells; assay type: functional, cell-based; details: Homo sapiens
# Vero = assay: viability of Vero cells under compound – cytotoxicity control for flavivirus capping enzyme inhibitors (AID 588742); assay type: functional; details: Chlorocebus sabaeus
# HEK293 [5] = assay: cells; assay type: functional, cell-based; details: Homo sapiens; remark: listed apart in the source
# [6] = tested on: Streptococcus sp. 'group A'; assay: Streptococcus pyogenes SK(-)GAS viability under kanamycin – luminescence, BacTiterGlo, confirmation, counter-screen for streptokinase expression inhibitor project, dose response (AID 1900); assay type: functional, organism-based
# Streptokinase A = target: T1, Streptokinase A (Streptococcus pyogenes serotype M1, UniProt P10520); assay: viability-normalized secreted streptokinase activity reduction – plasminogen activation absorbance, OD405, dose response (AID 1914); assay type: functional, Streptococcus pyogenes M1 GAS;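 also: secreted streptokinase activity via plasminogen activation per viability signal from cell pellet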
# T1 sequence (P10520 whole entry): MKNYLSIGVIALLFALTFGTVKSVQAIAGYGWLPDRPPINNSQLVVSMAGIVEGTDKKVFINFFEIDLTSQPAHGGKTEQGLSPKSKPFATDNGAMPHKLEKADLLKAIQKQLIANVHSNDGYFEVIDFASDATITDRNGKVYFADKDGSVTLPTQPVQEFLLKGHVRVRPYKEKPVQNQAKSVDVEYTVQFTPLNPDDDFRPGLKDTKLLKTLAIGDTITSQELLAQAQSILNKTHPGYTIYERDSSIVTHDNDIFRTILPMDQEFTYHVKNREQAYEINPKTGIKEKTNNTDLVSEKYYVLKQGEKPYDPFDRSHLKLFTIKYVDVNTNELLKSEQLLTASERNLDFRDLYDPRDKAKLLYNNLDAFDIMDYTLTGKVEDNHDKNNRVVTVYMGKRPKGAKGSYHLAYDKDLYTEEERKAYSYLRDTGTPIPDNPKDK
# Phospholipase D2 = Phospholipase D2 (Homo sapiens, UniProt O14939); assay: cellular phospholipase D2 inhibition IC50 – cell-based, dose response (AID 602147); assay type: functional;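 also: cellular assay in HEK293 cells overexpressing GFP-tagged PLD2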
# Chain of Phospholipase D2 (O14939 whole entry): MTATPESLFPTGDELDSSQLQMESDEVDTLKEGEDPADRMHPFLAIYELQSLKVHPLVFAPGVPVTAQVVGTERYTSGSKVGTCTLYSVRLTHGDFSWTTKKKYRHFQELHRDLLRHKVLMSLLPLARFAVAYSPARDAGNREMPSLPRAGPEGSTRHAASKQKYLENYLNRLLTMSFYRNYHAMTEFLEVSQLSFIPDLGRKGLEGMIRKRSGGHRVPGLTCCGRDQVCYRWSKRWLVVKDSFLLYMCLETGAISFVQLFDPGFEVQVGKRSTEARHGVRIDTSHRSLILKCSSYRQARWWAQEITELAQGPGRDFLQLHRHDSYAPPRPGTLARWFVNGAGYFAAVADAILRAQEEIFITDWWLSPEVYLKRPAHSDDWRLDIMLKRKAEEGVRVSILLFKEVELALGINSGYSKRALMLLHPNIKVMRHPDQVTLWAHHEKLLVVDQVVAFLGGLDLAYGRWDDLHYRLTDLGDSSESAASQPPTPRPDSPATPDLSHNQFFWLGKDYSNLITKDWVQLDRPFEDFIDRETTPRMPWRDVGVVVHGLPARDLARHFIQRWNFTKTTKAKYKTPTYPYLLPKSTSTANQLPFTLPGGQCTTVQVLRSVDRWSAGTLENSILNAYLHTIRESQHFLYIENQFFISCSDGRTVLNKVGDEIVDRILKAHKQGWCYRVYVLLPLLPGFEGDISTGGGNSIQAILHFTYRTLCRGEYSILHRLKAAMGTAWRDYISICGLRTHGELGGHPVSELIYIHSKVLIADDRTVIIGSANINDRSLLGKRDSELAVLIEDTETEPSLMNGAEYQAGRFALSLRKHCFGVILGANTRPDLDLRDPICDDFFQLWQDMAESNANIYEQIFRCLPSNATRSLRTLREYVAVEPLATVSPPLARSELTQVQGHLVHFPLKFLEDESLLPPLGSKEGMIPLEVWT
# Phospholipase D1 = Phospholipase D1 (Homo sapiens, UniProt Q13393); assay: cellular phospholipase D1 inhibition IC50 – cell-based, dose response (AID 602151); assay type: functional;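 also: cellular PLD1 assay in Calu-1 cells stimulated with PMA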
# [7] = target: Dual specificity tyrosine-phosphorylation-regulated kinase 1B (Homo sapiens, UniProt Q9Y463); assay: Navigating the Kinome. Panel member name: DYRK1B; assay type: functional
# [8] = target: Cyclin-dependent kinase 9 (Homo sapiens, UniProt P50750); assay type: functional;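 also: value from the CDK9 entry of a kinome-spanning kinase panel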
# [9] = target: Glycogen synthase kinase-3 beta (Homo sapiens, UniProt P49841); assay type: functional;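 also: value comes from a broad kinome profiling panel, with GSK3B as the panel member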
# [10] = target: Cell division cycle 7-related protein kinase (Homo sapiens, UniProt O00311); assay type: functional;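 also: value obtained from a kinome-wide kinase panel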
# Wee1-like protein kinase = Wee1-like protein kinase (Homo sapiens, UniProt P30291); assay: Navigating the Kinome. Panel member name: WEE1; assay type: functional
# Chain of Wee1-like protein kinase (P30291 whole entry): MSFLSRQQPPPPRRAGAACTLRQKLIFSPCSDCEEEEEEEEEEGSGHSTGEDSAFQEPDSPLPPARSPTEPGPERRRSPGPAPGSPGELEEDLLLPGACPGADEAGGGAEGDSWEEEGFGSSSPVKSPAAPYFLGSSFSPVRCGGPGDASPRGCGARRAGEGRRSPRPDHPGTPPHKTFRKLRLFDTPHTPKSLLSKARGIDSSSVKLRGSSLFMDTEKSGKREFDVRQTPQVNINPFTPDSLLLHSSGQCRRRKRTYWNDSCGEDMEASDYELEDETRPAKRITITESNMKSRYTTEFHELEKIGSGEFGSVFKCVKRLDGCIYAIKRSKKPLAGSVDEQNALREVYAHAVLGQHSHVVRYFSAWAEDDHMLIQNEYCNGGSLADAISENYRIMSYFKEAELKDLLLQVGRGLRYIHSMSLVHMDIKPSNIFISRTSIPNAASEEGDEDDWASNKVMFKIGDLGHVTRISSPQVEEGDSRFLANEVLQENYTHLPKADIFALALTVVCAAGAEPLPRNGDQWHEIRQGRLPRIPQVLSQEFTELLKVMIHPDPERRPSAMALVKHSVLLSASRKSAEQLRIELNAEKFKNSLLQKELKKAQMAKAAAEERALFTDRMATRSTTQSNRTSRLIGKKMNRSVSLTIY
# [11] = target: Tyrosine-protein kinase Fyn (Homo sapiens, UniProt P06241); assay type: functional
# Chain of Tyrosine-protein kinase Fyn (P06241 whole entry): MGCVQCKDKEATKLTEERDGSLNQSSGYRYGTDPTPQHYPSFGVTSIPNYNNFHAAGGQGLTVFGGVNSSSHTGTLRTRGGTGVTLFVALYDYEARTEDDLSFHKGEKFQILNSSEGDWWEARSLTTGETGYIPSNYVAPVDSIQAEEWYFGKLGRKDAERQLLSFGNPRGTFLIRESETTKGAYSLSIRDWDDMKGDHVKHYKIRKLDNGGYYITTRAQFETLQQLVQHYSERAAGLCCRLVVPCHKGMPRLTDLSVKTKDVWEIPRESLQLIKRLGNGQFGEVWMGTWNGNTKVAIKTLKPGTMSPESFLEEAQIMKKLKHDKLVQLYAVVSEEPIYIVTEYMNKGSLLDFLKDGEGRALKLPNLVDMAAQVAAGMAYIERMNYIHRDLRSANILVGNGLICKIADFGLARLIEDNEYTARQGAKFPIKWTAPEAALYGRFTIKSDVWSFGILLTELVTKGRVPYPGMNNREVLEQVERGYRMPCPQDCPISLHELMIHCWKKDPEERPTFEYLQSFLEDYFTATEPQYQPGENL
# [12] = target: Serine/threonine-protein kinase TAO1 (Homo sapiens, UniProt Q7L7X3); assay type: functional
# [13] = target: Cyclin-dependent kinase 8 (Homo sapiens, UniProt P49336); assay: Navigating the Kinome. Panel member name: CDK8; assay type: functional
# [14] = target: ALK tyrosine kinase receptor (Homo sapiens, UniProt Q9UM73); assay type: functional;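 also: ALK tested as one member of a kinase panel screen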
# [15] = target: Platelet-derived growth factor receptor alpha (Homo sapiens, UniProt P16234); assay: Navigating the Kinome. Panel member name: PDGFRA; assay type: functional
# [16] = target: Tyrosine-protein kinase Lck (Homo sapiens, UniProt P06239); assay type: functional;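 also: lck was assayed as one member of a kinase panel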
# Chain of Tyrosine-protein kinase Lck (P06239 whole entry): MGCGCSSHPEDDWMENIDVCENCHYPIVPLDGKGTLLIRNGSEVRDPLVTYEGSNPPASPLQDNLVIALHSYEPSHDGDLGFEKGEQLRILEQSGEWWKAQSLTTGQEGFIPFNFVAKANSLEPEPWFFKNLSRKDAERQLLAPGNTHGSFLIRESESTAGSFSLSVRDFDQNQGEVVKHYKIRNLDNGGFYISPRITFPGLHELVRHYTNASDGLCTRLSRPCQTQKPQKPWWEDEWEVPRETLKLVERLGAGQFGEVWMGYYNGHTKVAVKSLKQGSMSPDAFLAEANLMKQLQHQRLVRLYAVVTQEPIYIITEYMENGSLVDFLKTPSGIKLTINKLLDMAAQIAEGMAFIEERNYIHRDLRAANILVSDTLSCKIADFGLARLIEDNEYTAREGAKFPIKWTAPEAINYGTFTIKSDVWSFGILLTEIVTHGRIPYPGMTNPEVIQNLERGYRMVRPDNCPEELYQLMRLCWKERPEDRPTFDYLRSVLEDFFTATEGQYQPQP
# [17] = target: Proto-oncogene tyrosine-protein kinase receptor Ret (Homo sapiens, UniProt P07949); assay type: functional;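 also: measured within a kinome-wide profiling panel, RET as the panel member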
# Focal adhesion kinase 1 = Focal adhesion kinase 1 (Homo sapiens, UniProt Q05397); assay type: functional;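 also: measured as one member of a kinome panel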
# Chain of Focal adhesion kinase 1 (Q05397 whole entry): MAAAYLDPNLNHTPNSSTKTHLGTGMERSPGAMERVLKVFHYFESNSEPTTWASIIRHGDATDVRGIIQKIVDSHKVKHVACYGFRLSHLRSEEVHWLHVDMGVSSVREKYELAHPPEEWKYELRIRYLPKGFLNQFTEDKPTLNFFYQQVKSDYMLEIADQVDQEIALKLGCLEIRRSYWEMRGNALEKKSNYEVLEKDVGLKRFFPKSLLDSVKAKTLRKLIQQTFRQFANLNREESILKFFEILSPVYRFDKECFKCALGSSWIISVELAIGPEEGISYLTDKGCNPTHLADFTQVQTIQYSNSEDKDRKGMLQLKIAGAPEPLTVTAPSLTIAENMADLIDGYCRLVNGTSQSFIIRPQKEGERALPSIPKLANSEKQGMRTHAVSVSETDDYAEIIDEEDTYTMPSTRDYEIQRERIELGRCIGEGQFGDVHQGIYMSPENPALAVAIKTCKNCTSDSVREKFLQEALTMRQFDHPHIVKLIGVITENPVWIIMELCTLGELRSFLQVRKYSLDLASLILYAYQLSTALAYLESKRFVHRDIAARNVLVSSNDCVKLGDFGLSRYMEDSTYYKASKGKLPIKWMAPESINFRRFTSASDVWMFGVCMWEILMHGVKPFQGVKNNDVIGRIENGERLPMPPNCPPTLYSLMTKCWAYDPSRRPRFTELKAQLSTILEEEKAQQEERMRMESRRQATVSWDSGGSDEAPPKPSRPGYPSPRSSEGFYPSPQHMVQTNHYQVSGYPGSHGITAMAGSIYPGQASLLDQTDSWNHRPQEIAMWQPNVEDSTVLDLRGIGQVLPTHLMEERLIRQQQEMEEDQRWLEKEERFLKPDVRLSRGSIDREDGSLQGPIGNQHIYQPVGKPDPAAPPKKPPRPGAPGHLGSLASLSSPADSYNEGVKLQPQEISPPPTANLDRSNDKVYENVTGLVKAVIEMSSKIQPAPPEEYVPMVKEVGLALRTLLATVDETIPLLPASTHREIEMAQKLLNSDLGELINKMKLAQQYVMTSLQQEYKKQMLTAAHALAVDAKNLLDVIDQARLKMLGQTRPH
# [18] = target: Tyrosine-protein kinase BTK (Homo sapiens, UniProt Q06187); assay type: functional
# [19] = target: Calcium/calmodulin-dependent protein kinase type II subunit alpha (Homo sapiens, UniProt Q9UQM7); assay: Navigating the Kinome. Panel member name: CAMK2A; assay type: functional
# Chain of Calcium/calmodulin-dependent protein kinase type II subunit alpha (Q9UQM7 whole entry): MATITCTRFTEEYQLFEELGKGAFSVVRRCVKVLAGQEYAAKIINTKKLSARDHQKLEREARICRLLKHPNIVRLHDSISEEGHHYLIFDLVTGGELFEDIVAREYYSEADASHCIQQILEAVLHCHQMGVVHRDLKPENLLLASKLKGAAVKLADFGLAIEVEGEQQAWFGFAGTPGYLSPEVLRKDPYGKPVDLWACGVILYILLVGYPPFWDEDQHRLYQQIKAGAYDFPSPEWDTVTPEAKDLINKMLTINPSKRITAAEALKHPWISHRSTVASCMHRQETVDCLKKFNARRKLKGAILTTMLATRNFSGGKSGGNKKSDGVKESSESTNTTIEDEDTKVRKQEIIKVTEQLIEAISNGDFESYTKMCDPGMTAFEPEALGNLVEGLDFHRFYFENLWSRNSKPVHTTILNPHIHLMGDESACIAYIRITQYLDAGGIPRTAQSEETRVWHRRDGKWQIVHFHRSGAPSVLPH
# [20] = target: Neuropeptides B/W receptor type 1 (Homo sapiens, UniProt P48145); assay: human NPBW1 receptor blockade, IC50 – cell-based, fluorescence, dose response, set 6, late-stage follow-up (AID 588583); assay type: functional
# [21] = target: Melanin-concentrating hormone receptor 1 (Homo sapiens, UniProt Q99705); assay: Late-stage fluorescence-based counterscreen for antagonists of the G-protein coupled receptor 7 (GPR7): cell-based dose response assay to identify antagonists of the melanin-concentrating hormone receptor 1 (MCHR1) Set 6.; assay type: functional
# Chain of Melanin-concentrating hormone receptor 1 (Q99705 whole entry, the tested form may be a part): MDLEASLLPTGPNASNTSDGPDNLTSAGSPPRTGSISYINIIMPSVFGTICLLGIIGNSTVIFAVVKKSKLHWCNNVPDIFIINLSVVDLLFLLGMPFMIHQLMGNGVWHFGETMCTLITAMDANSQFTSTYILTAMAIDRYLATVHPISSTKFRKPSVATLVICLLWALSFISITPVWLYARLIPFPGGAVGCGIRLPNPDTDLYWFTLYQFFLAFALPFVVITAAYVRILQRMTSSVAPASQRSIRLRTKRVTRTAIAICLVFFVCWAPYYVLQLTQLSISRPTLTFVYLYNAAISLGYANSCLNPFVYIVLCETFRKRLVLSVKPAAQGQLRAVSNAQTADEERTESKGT
# CHO = CHO cell viability loss, potency – luminescence, cytotoxicity control for TLR9-MyD88 binding inhibitor project, dose response (AID 588339); assay type: functional, cell-based, hamster; details: Cricetulus griseus;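 also: CHO cells stably coexpressing TLR9 and MyD88 fusions from primary screen; compound exposure lasted 48 hours before viability readout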
# [22] = Luminescence Cell-Based Dose Retest to Confirm Inhibitors of Cancer Stem Cells. [Related pubchem assays (depositor defined):AID2717, AID2721]; assay type: functional; details: Homo sapiens
# Beta Lactamase = Beta Lactamase (Pseudomonas aeruginosa, UniProt Q932Y6); assay: BLA reporter interference, concentration series – BLA reporter cells, FRET fluorescence, artefact control for TLR9-MyD88 binding inhibitor project, dose response (AID 588341); assay type: cell-based;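 also: cell based assay in CHO-K1 cells stably expressing beta-lactamase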
# Chain of Beta Lactamase (Q932Y6 whole entry): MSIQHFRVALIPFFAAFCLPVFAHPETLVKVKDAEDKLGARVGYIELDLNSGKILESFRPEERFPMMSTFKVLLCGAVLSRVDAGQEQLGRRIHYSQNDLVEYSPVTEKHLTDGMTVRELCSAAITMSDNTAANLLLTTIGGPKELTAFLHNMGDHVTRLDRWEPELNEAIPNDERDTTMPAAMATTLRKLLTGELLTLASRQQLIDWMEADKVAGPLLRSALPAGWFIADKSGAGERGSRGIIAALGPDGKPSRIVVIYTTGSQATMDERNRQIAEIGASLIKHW
# 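For AC50 in this document: cells exposed to compound for roughly 70 hours or longer before luminescence read.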
structure (smiles),measurement,setting,value
O=C(O)CCn1cc(/C=C/C(=O)c2ccc(Cl)cc2)c(-c2cccc(Br)c2)n1,EC50,Streptococcus,6.69 µM (active)
same,IC50,Genome polyprotein,52.4 µM (active)
same,IC50,HEK293 [1],4.06 µM (active)
same,IC50,[2],27.8 µM (active)
same,IC50,Phospholipase A2,8.65 µM (active)
same,EC50,HEK293 [3],6.52 µM (active)
same,IC50,Cysteine protease ATG4B,13.5 µM (active)
same,IC50,HEK293 [4],17.9 µM (active)
same,CC50,Vero,> 40 µM (active)
same,IC50,HEK293 [5],10.6 µM (active)
same,EC50,[6],4.35 µM (active)
same,EC50,Streptokinase A,0.874 µM (active)
C[C@@H](CN1CCC(n2c(=O)[nH]c3ccccc32)CC1)NC(=O)c1cc2cc(F)ccc2[nH]1,IC50,Phospholipase D2,0.13 µM (active)
same,IC50,Phospholipase D1,0.001 µM (active)
CC1c2cccn2CCN1Cc1nc2scc(-c3ccco3)c2c(=O)[nH]1 (centres undefined),Ki,[7],2.51 µM (active)
same,Ki,[8],1.58 µM (active)
same,Ki,[9],3.16 µM (active)
Fc1ccc(Nc2ncnc(Nc3ccc4cn[nH]c4c3)n2)cc1,Ki,[10],0.0501 µM (active)
same,Ki,Wee1-like protein kinase,> 3.16 µM (inactive)
CC(C)(C)c1cc(NC(=O)Nc2cccc3ccccc23)n(-c2cccc(C(=O)N(CCN)CCO)c2)n1,Ki,[11],> 6.31 µM (inactive)
same,Ki,[12],2.51 µM (active)
same,Ki,[13],3.16 µM (active)
same,Ki,[14],> 6.31 µM (inactive)
same,Ki,[15],0.794 µM (active)
same,Ki,[16],> 6.31 µM (inactive)
same,Ki,[17],1.26 µM (active)
same,Ki,Focal adhesion kinase 1,> 6.31 µM (inactive)
same,Ki,[18],> 6.31 µM (inactive)
same,Ki,[19],> 7.94 µM (inactive)
N#CC(c1ccccc1)c1c(Cl)cnn(Cc2ccc3ccccc3c2)c1=O (centres undefined),IC50,[20],3.04 µM (active)
same,IC50,[21],3.04 µM (active)
c1cc(SC2CCCCC2)cc(-c2nc3cnccn3c2NC2CCCCC2)c1,IC50,CHO,23.4 µM (inactive)
same,AC50,[22],1.58 µM (active)
same,IC50,Beta Lactamase,4.83 µM (active)
